Measured values reported in US10342796B2, “Acrylanilide derivative, preparation method, and applications thereof in pharmacy” (Ancureall Pharmaceutical (Shanghai) Co., Ltd., priority 2015, dated 2019).
Like-named read-outs stand apart in the source and are kept apart here.

What was measured:
H1975 (EGFR L858R/T790M) = assay: Growth inhibition GI50 in vitro (CCK8/MTT, 72 h); type: cell-based, human; conditions: Homo sapiens, NCI-H1975
PC-9 (EGFR dE746-A750) = assay: Growth inhibition GI50 in vitro (CCK8/MTT, 72 h); type: cell-based, human; conditions: Homo sapiens
N87 (HER2 Amp) = assay: Growth inhibition GI50 in vitro (CCK8/MTT, 72 h); type: cell-based, human; conditions: Homo sapiens
[1] = test system: NCI-H1781 (HER2 exon 20 G776VC mutation); assay: Growth inhibition GI50 in vitro (CCK8/MTT, 72 h); type: cell-based; conditions: Homo sapiens, NCI-H1781; Table 16; 1000 nM to 0.03 nM serial dilution; read-out: GI50 H1781 (HER2 G776VC)
Experimental: Human lung adenocarcinoma cell line Calu-3 (ATCC) was cultured with 1×MEM complete medium (10% FBS, 1% double-antibiotics, 1% NEAA (Gibco), 2 mM glutamine and 1 mM of sodium pyruvate). Human breast cancer cell line SK-BR-3 was cultured with McCOY'S5A complete medium (10% FBS). Human colon cancer cell line SNU1040 (HER2 V777M positive) (ATCC) and human bronchoalveolar adenocarcinoma cell line NCI-H1781 (expressing HER2 exon 20 G776VC mutation) (ATCC) were cultured with 1×RPMI1640 complete medium (10% FBS), respectively.
(§1) Adherent cells were digested with 0.25% pancreatin-EDTA (Gibco). The suspension cells were collected by centrifugation. The supernatant was discard and the cell pellet was resuspended and counted. Different cell concentrations (5˜10×10^4 cells/mL) were prepared according to the growth cycle of each cell line and then seeded on a 96-well plate (Corning), 100 μL/well. The cells were incubated over night at 37° C., 5% CO2. The compounds were added to the cells on the second day with 2 wells in parallel. The final concentration of organic solvent shall not exceed 1%. The cells were continually incubated for 72 h, and then subjected to MTT assay.
(§2) The present compounds and the reference compounds were dissolved with DMSO (Sigma), respectively. […] The storage concentration of compounds was 10 mM and kept at −20° C. They were diluted by 2 times or 10 times with serial dilution before using.
(§3) Dojindo CCK8 reagent kit was used as MTT assay. […] FC meter was used as microplate reader.
(§4) Adherent cell culture medium was discard and immediately replaced with fresh prepared medium which contains 10% CCK8 reagent (100 μL/well). For the suspension cells, CCK8 was directly added to 10% of the final concentration. The cells were continually incubated for 1˜4 h. When the color of control wells turned to dark yellow, the absorption value was measured at OD450 nm. The cell growth rate was calculated according to the following formula: cell growth rate (%)=100*(T−T0)/(C−T0), T=optical density of drug treatment cell well—optical density of blank control well; T0=optical density of cell well before drug treatment—optical density of blank control well; C=optical density of cell well of solvent control group—optical density of blank control well. The concentration value of 50% inhibition of cell growth (GI50) was calculated. The experiment was independently repeated 1˜3 times, and subject to biological statistical analysis.
Furthermore, the present compounds (99, 136, 205, 211, 212, 213, 216, 229, 230, 231, 232, 233 and 236) were selected to carry out growth inhibition test for HER2/ERBB2 gene amplified or high expressed or mutant tumor cells. Afatinib and AZD9291 were used for references as second- and third-generation inhibitors of EGFR.
Each compound started at 1000 nM as an initial concentration and was diluted by 2 times with serial dilution to 0.03 nM. The GI50 value of each compound was calculated according to Test Example 1.3.

H292 (EGFR WT) = assay: Growth inhibition GI50 in vitro (CCK8/MTT, 72 h); type: cell-based; conditions: Homo sapiens, NCI-H292; Table 15; 1000 nM to 0.03 nM serial dilution; read-out: GI50 H292 (EGFR WT)
Text: EGFR wild type cell lines: human epidermal cancer cell line A431 (EGFR WT, amplification and high expression, from Shanghai Cell Bank of Chinese Academy of Sciences and ATCC), NSCLC cell lines NCI-H460 (EGFR WT, Kras G61H and PI3KCA E545K mutants, ATCC) and NCI-H1299 (EGFR WT, ATCC), melanoma cell line A375 (EGFR WT and BRAF V600E mutant, from Shanghai Cell Bank of Chinese Academy of Sciences, ATCC), human lung cancer cell line NCI-H292 (EGFR WT, from human lung mucoepidermoid carcinoma/lymphatic metastasis, purchased from Shanghai Cell Bank of Chinese Academy of Sciences) were cultured with 1×RPMI1640 complete medium which was supplement with 10% FBS. NSCLC cell line A549 (EGFR WT and Kras G12S mutant, from Shanghai Cell Bank of Chinese Academy of Sciences) was cultured with 1×Ham'S F12K complete medium which was supplement with 10% FBS, 1% double-antibiotics and 2 mM glutamine.
as §1, with “The” for “Adherent cells were digested with 0.25% pancreatin-EDTA (Gibco). The”
as §2, §3
as §4, with “The concentration value of 50% inhibition of cell growth (GI50) was calculated.” left out

A549 (EGFR WT) = assay: Growth inhibition GI50 in vitro (CCK8/MTT, 72 h); type: cell-based, human; conditions: Homo sapiens, A549
HCC827 (EGFR dE746-A750) = assay: Growth inhibition GI50 in vitro (CCK8/MTT, 72 h); type: cell-based, human; conditions: Homo sapiens, HCC827; EGFR mutant cell line; range of GI50; read-out: GI50 HCC827
[2] = test system: PC-9ER (EGFR delE746-A750/T790M); assay: Growth inhibition GI50 in vitro (CCK8/MTT, 72 h); type: cell-based, human; conditions: Homo sapiens, PC-9/ER; EGFR mutant cell line; range of GI50; read-out: GI50 PC9ER
AU565 (Her2 amp) = assay: Growth inhibition GI50 in vitro (CCK8/MTT, 72 h); type: cell-based, human; conditions: Homo sapiens, AU565; HER2 positive cell line; range of GI50; read-out: GI50 AU-565
SK-BR-3 (Her2 amp) = assay: Growth inhibition GI50 in vitro (CCK8/MTT, 72 h); type: cell-based, human; conditions: Homo sapiens, SK-BR-3; HER2 positive cell line; range of GI50; read-out: GI50 SK-BR-3
[3] = test system: A431 (EGFR WT, amplification and high expression); assay: Growth inhibition GI50 in vitro (CCK8/MTT, 72 h); type: cell-based, human; conditions: Homo sapiens, A-431; EGFR wild type cell line; range of GI50; read-out: GI50 A431
[4] = test system: H1299 (EGFR wt, Nras Q61K); assay: Growth inhibition GI50 in vitro (CCK8/MTT, 72 h); type: cell-based, human; conditions: Homo sapiens, NCI-H1299; EGFR wild type cell line; range of GI50; read-out: GI50 H1299
[5] = test system: H460 (EGFR wt, Kras G61H); assay: Growth inhibition GI50 in vitro (CCK8/MTT, 72 h); type: cell-based, human; conditions: Homo sapiens, NCI-H460; EGFR wild type cell line; range of GI50; read-out: GI50 H460
H1975 tumor cells = assay: In vivo tumor growth inhibition, xenograft; set-up: species or system Bab/c nude mice; conditions: Mus musculus, NCI-H1975, po, 456 h; 25 mg/kg intragastric once daily, day 19; read-out: TGI (%) H1975
Text: (§5) Tumor xenograft models of immunodeficient mice are an effective tool to test the antitumor activity of the compound in vivo. Generally, the effectiveness of human tumor cell xenograft is positively correlated with the clinical treatment of human tumor. Bab/c immunodeficient mouse is one of the most commonly used xenograft animals with human tumor cells. In order to test whether the present compounds can inhibit the in vivo growth of the tumor cells expressing EGFR mutantion or HER2/ErbB2 overexpression, H1975, PC-9 and NCI-N87 cell lines were used in the experiments. When H1975, PC-9 and NCI-N87 cells were in growth logarithmic phase, they were digested with pancreatin. An appropriate amount of 1×RPMI1640 culture medium (serum-free) was added to stop digestion. The cells were collected to a 50 ml centrifuge tube (Corning), and centrifuged at 1700 rm for 3 min. The supernatant was discard, then the cells were suspended with 1×RPMI1640 culture medium and count the number. […] cells/mL was prepared and then placed on ice. 5˜10×10^6 (0.2 ml) cells were inoculated subcutaneously on the right side of the back of 6˜8 week old female Bab/c nude mice (about 20 g in weight). When the tumor average volume growed to 100˜200 mm^3, the mice were randomly divide into groups (3-6 mice per group), and marked by ear pierced tags and weighted. The test compounds and the reference compound (with a purity over 99% and individual impurity not higher than 0.2%) were formulated to emulsion suspension with CM (30% polyethylene glycol 400, 0.5% Tween-80 and 2.5% propylene glycol) respectively. Intragastric administration was continued once daily at a dosage of 25 mg/kg (0.1 ml/10 g mouse). The tumor was measured 3 times per week. When the average volume of the tumor in CM control group was up to 1500 mm^3 or after administration for 30 days, the experiment was ended.
(§6) The volume of tumor (V) was calculated as V=½*a*b^2 (a represents length of tumors, b represents width of tumors). Tumor growth inhibition (TGI) was calculated as: TGI (%)=100−(VT−VT0)/(VC−VC0)*100%; where VT0 and VT are the tumor volumes of the beginning and finish days of dosed groups; and VC0 and VC are the tumor volumes of the beginning and finish days for the control group, respectively.

PC-9 tumor cells = assay: In vivo tumor growth inhibition, xenograft; set-up: species or system Bab/c nude mice; conditions: Mus musculus, po, 456 h; 25 mg/kg intragastric once daily, day 19; read-out: TGI (%) PC-9
Text: as §5, §6

[6] = Table 13, 72 h, read-out: Range of GI50 H1975 (EGFR L858R/T790M)
[7] = Table 15, 1000 nM to 0.03 nM serial dilution, read-out: GI50 H1975 (EGFR L858R/T790M)
[8] = Table 13, 72 h, read-out: Range of GI50 PC-9 (EGFR dE746-A750)
[9] = Table 15, 1000 nM to 0.03 nM serial dilution, read-out: GI50 PC-9 (EGFR dE746-A750)
[10] = Table 13, 72 h, read-out: Range of GI50 N87 (HER2 Amp)
[11] = Table 16, 1000 nM to 0.03 nM serial dilution, read-out: GI50 N87 (HER2 amp)
[12] = Table 13, 72 h, read-out: Range of GI50 A549 (EGFR WT)
[13] = Table 15, 1000 nM to 0.03 nM serial dilution, read-out: GI50 A549 (EGFR WT)

| GI50 (H1975 (EGFR L858R/T790M); [6]) [µM] | GI50 (H1975 (EGFR L858R/T790M); [7]) [µM] | GI50 (PC-9 (EGFR dE746-A750); [8]) [µM] | GI50 (PC-9 (EGFR dE746-A750); [9]) [µM] | GI50 [1] [µM] | GI50 (H292 (EGFR WT)) [µM] | GI50 (A549 (EGFR WT); [12]) [µM] | GI50 (A549 (EGFR WT); [13]) [µM] | SMILES | GI50 (N87 (HER2 Amp); [10]) [µM] | GI50 (N87 (HER2 Amp); [11]) [µM] | other results |
| --- | --- | --- | --- | --- | --- | --- | --- | --- | --- | --- | --- |
| 0.01 to 0.1 | 0.0196 | < 0.01 | 0.00789 | 0.0315 | > 1 | > 1 | > 1 | C=CC(=O)Nc1cc(Nc2nccc(-n3ccc4c(OC)cc(Br)cc43)n2)c(OC)cc1N(C)CCN(C)C [Compound 211, N-(5-(4-(4-methoxyl-6-bromo-1H-indol-1-yl)-pyrimidin-2-ylamino)-2-(2-(dimethylamino-ethyl)-methyl-amino)-4-methoxyl-phenyl)-acrylamide] | < 0.01 | 0.00676 |  |
| < 0.01 | 0.0098 | < 0.01 | 0.00783 | 0.0156 | > 1 | > 1 | > 1 | C=CC(=O)Nc1cc(Nc2nccc(-n3ccc4c(OC)cc(Cl)cc43)n2)c(OC)cc1N(C)CCN(C)C [Compound 213] | < 0.01 | 0.00195 |  |
| < 0.01 | 0.00856 | < 0.01 | 0.00682 | 0.0156 | > 1 | > 1 | > 1 | C=CC(=O)Nc1cc(Nc2nccc(-n3ccc4c(OC)cc(F)cc43)n2)c(OC)cc1N(C)CCN(C)C [Compound 212, N-(5-(4-(4-methoxyl-6-fluoro-1H-indol-1-yl)-pyrimidin-2-ylamino)-2-(2-(dimethylamino-ethyl)-methyl-amino)-4-methoxyl-phenyl)-acrylamide] | < 0.01 | 0.00267 |  |
|  |  |  |  |  |  |  |  | C=CC(=O)Nc1cc(Nc2cc(-c3cn(C)c4ccccc34)ncn2)c(OC)cc1N1CCC(N2CCN(C)CC2)CC1 [Compound 176, N-(4-methoxyl-5-(6-(1-methyl-1H-indol-3-yl)-pyrimidin-4-ylamino)-2-(4-(4-methylpiperazin-1-yl)-piperidin-1-yl)-phenyl)-acrylamide] |  |  | GI50 (H1975 (EGFR L858R/T790M); EGFR mutant cell line, range of GI50, read-out: GI50 H1975): 0.01 to 0.1 µM; GI50 (HCC827 (EGFR dE746-A750)): < 0.01 µM; GI50 (PC-9 (EGFR dE746-A750); EGFR mutant cell line, range of GI50, read-out: GI50 PC-9): < 0.01 µM; GI50 [2]: 0.01 to 0.1 µM; GI50 (N87 (HER2 Amp); HER2 positive cell line, range of GI50, read-out: GI50 N87): 0.01 to 0.1 µM; GI50 (AU565 (Her2 amp)): 0.1 to 1 µM; GI50 (SK-BR-3 (Her2 amp)): 0.01 to 0.1 µM; GI50 [3]: 0.1 to 1 µM; GI50 (A549 (EGFR WT); EGFR wild type cell line, range of GI50, read-out: GI50 A549): > 1 µM; GI50 [4]: > 1 µM; GI50 [5]: > 1 µM; inhibition in vivo at 25 mg/kg (H1975 tumor cells): 98.2%; inhibition in vivo at 25 mg/kg (PC-9 tumor cells): 98.6% |
